Laboratory results: patent US20150315218A1, “SALTS OF PRODRUGS OF PIPERAZINE AND SUBSTITUTED PIPERIDINE ANTIVIRAL AGENTS” (Bristol-Myers Squibb Company, priority 2004, published 2015)
Read-outs that look alike come from different tables or passages of the source.

Tests used:
[1] = Single-dose toxicokinetic and tolerability study of prodrugs in dogs; type: in vivo, dog; settings: for concentration at 24 h / AUC(0-inf) / half-life: dog, plasma; for concentration at 24 h: oral, read-out: C24h; for AUC(0-inf) / half-life: po; for half-life: read-out: T1/2 (converted)
Experimental: A multi-phase study was conducted to evaluate the tolerability of the prodrug, Iab (monolysine salt) at dosages of 24, 90, or 240 mg/kg (free acid, molar equivalent to 19, 71, or 190 mg/kg of parent IVa, respectively) and the toxicokinetics of lab and IVa (4). Iab was administered to two female dogs/group once daily either as an aqueous solution (24 or 90 mg/kg) or dry-filled capsules (24, 90 [once and twice daily] or 240 mg/kg). The endpoints were: clinical signs, body weight, food consumption, and plasma toxicokinetics of lab and IVa. In all cases, a 1-week washout period was used between doses for all phases of the study. […]
On day 1, Icb was administered to one dog/sex/group once daily in dry-filled capsules at the above dosages. A 1-week washout period was used between doses in the study. On day 8, Icb was administered to one dog/sex/group once daily as an aqueous solution at 25 mg/kg or twice daily in dry-filled capsules at 46 or 125 mg/kg BID.

[2] = Single-dose oral toxicokinetic study of prodrugs in rats; type: in vivo, rat; settings: for concentration at 24 h / Cmax / AUC / half-life: male, Sprague Dawley, rat, plasma; for concentration at 24 h: oral, read-out: C24h; for Cmax / AUC / half-life: po; for AUC: read-out: AUC from zero to ∞; for half-life: read-out: T1/2 (converted)
Experimental: A 1-day oral toxicokinetic study in rats was conducted using the prodrug Iab (monolysine salt). Iab was administered at dosages of 16, 72, and 267 mg/kg (free acid) by oral gavage to three male rats/group using water as the vehicle (solution formulation). The dosages of prodrug free acid correspond to IVa (parent) molar equivalent dosages of 13, 57, and 211 mg/kg, respectively. The endpoint evaluated was plasma toxicokinetics of Iab and IVa in the individual rats.
A 1-day oral toxicokinetic study in rats was conducted by using the prodrug Ibb (monolysine salt). Ibb was administered at dosages of 19, 64, and 236 mg/kg (free acid) by oral gavage to three male rats/group using water as the vehicle (solution formulation).
A 1-day oral toxicokinetic study in rats was conducted using the prodrug Icb (disodium salt). Icb was administered at dosages of 5, 25, and 200 mg/kg (free acid) by oral gavage to three male rats/group using water as the vehicle (solution formulation).

[3] = IV and PO pharmacokinetic studies of prodrug salts (Iab, Ibb, Icb) in the monkey, with historical parent data; type: in vivo, cynomolgus monkeys; settings: cynomolgus monkey, plasma; for AUC: read-out: AUCtot; for half-life: read-out: T1/2 (converted)
Experimental: The IV and PO studies of Iab were conducted in a crossover fashion in three male cynomolgus monkeys (11±1.2 kg, Charles River Biomedical Research Foundation, Houston, Tex.). There was a two-week washout period between the IV and PO studies.
In the IV study, Iab was infused via the femoral vein at 1.3 mg/kg (free acid, or 1.1 mg/kg of IVa equivalent) over 5 min at a constant rate of 0.1 mL/kg/min. The concentration of the dosing solution was 2.6 mg/mL, and the dosing volume was 0.5 mL/kg. Serial blood samples were collected from the femoral artery before dosing and at 5, 10, 15, 30, 45 min, 1, 2, 4, 6, 8 and 24 hr after dosing.
In the PO study, the monkeys were fasted overnight before dosing. Iab was administered by oral gavage at 7.1 mg/kg (free acid, or 5.6 mg/kg of IVa equivalent). The concentration of the dosing solution was 14.2 mg/mL, and the dosing volume was 0.5 mL/kg. Serial blood samples were collected before dosing and at 15, 30, 45 min, 1, 2, 4, 6, 8 and 24 hr after dosing.
The IV and PO studies of Ibb were conducted in a crossover fashion in three male cynomolgus monkeys (9.9±2.4 kg, Charles River Biomedical Research Foundation, Houston, Tex.). There was a two-week washout period between the IV and PO studies.
The concentration of the dosing solution was 2.7 mg/mL, and the dosing volume was 0.5 mL/kg. Serial blood samples were collected from the femoral artery before dosing and at 5, 10, 15, 30, 45 min, 1, 2, 4, 6, 8 and 24 hr after dosing.
In the PO study, the monkeys were fasted overnight before dosing. […] The concentration of the dosing solution was 5.8 mg/mL, and the dosing volume was 1 mL/kg. Serial blood samples were collected before dosing and at 15, 30, 45 min, 1, 2, 4, 6, 8 and 24 hr after dosing.
The IV and PO studies of Icb were conducted in a crossover fashion in three male cynomolgus monkeys (10±1.6 kg, Charles River Biomedical Research Foundation, Houston, Tex.). There was a two-week washout period between the IV and PO studies.
The concentration of the dosing solution was 2.8 mg/mL, and the dosing volume was 0.5 mL/kg. Serial blood samples were collected from the femoral artery before dosing and at 5, 10, 15, 30, 45 min, 1, 2, 4, 6, 8 and 24 hr after dosing.
In the PO study, the monkeys were fasted overnight before dosing. […] The concentration of the dosing solution was 9.8 mg/mL, and the dosing volume was 0.5 mL/kg. Serial blood samples were collected before dosing and at 15, 30, 45 min, 1, 2, 4, 6, 8 and 24 hr after dosing.

[4] = female, 25 mg/kg, dog 2201F, day 1, Ibb 25 mg/kg QD dry-filled capsules
[5] = female, 25 mg/kg, dog 2201F, day 8, Ibb 25 mg/kg QD aqueous solution
[6] = female, 92 mg/kg, dog 3201F, day 1, Ibb 92 mg/kg QD dry-filled capsules
[7] = female, 250 mg/kg, dog 4201F, day 1, Ibb 250 mg/kg QD dry-filled capsules
[8] = male, 25 mg/kg, dog 2101M, day 1, Ibb 25 mg/kg QD dry-filled capsules
[9] = male, 25 mg/kg, dog 2101M, day 8, Ibb 25 mg/kg QD aqueous solution
[10] = male, 92 mg/kg, dog 3101M, day 1, Ibb 92 mg/kg QD dry-filled capsules
[11] = male, 250 mg/kg, dog 4101M, day 1, Ibb 250 mg/kg QD dry-filled capsules

O=C(C(=O)N1CCN(C(=O)c2ccccc2)CC1)c1c[nH]c2c(-n3ccnn3)ncc(F)c12 [IVb]
time post-second dose at which mean Cmax of parent was achieved ([1]; dogs, BID dosing of prodrug): 1 to 2 h
time post-dose at which mean Cmax of parent was achieved ([1]; dogs, once daily (QD) dosing of prodrug): 1 to 4 h
concentration at 24 h [1, 4]: 688 nM
concentration at 24 h [1, 5]: 107 nM
concentration at 24 h ([1]; female, 46 mg/kg, dog 3201F, day 8, Ibb 46 mg/kg BID dry-filled capsules): 307 nM
concentration at 24 h [1, 6]: 202 nM
concentration at 24 h ([1]; female, 125 mg/kg, dog 4201F, day 8, Ibb 125 mg/kg BID dry-filled capsules): 1960 nM
concentration at 24 h [1, 7]: 704 nM
AUC(0-inf) [1, 4]: 136 µM·h
half-life [1, 4]: 4.5 h
AUC(0-inf) [1, 5]: 139 µM·h
AUC(0-inf) ([1]; female, 46 mg/kg, dog 3201F, day 8, Ibb 46 mg/kg BID dry-filled capsules, emesis): 1050 µM·h
AUC(0-inf) ([1]; female, 92 mg/kg, dog 3201F, day 1, Ibb 92 mg/kg QD dry-filled capsules, emesis): 329 µM·h
half-life [1, 6]: 2.3 h
AUC(0-inf) ([1]; female, 125 mg/kg, dog 4201F, day 8, Ibb 125 mg/kg BID dry-filled capsules, emesis): 978 µM·h
AUC(0-inf) ([1]; female, 250 mg/kg, dog 4201F, day 1, Ibb 250 mg/kg QD dry-filled capsules, emesis): 745 µM·h
half-life [1, 7]: 3.2 h
concentration at 24 h [1, 8]: 8 nM
concentration at 24 h [1, 9]: 547 nM
concentration at 24 h ([1]; male, 46 mg/kg, dog 3101M, day 8, Ibb 46 mg/kg BID dry-filled capsules): 10600 nM
concentration at 24 h [1, 10]: 1900 nM
concentration at 24 h ([1]; male, 125 mg/kg, dog 4101M, day 8, Ibb 125 mg/kg BID dry-filled capsules): 54200 nM
concentration at 24 h [1, 11]: 2610 nM
AUC(0-inf) [1, 8]: 259 µM·h
half-life [1, 8]: 1.5 h
AUC(0-inf) [1, 9]: 324 µM·h
half-life [1, 9]: 3.3 h
AUC(0-inf) ([1]; male, 46 mg/kg, dog 3101M, day 8, Ibb 46 mg/kg BID dry-filled capsules, emesis): 478 µM·h
AUC(0-inf) ([1]; male, 92 mg/kg, dog 3101M, day 1, Ibb 92 mg/kg QD dry-filled capsules, emesis): 111 µM·h
half-life [1, 10]: 3.6 h
AUC(0-inf) ([1]; male, 125 mg/kg, dog 4101M, day 8, Ibb 125 mg/kg BID dry-filled capsules, emesis): 1390 µM·h
AUC(0-inf) ([1]; male, 250 mg/kg, dog 4101M, day 1, Ibb 250 mg/kg QD dry-filled capsules, emesis): 334 µM·h
half-life [1, 11]: 4.1 h
concentration at 24 h ([2]; 19 mg/kg (free acid)): 48 nM
concentration at 24 h ([2]; 64 mg/kg (free acid)): 290 nM
concentration at 24 h ([2]; 236 mg/kg (free acid)): 29000 nM
Cmax ([2]; 19 mg/kg): 58000 nM
AUC ([2]; 19 mg/kg): 283 µM·h
half-life ([2]; 19 mg/kg): 2.1 h
Cmax ([2]; 64 mg/kg): 135000 nM
AUC ([2]; 64 mg/kg): 997 µM·h
half-life ([2]; 64 mg/kg): 2.1 h
Cmax ([2]; 236 mg/kg): 290000 nM
AUC ([2]; 236 mg/kg): 3700 µM·h
half-life ([2]; 236 mg/kg): 5.8 h
time post-dose at which mean maximum plasma concentration (Cmax) was achieved ([2]; rats, single oral dose of prodrug): 1 to 3 h
AUC ([3]; iv, 1 mg/kg): 10 ± 1.2 µM·h
clearance ([3]; iv, 1 mg/kg, read-out: CLtot): 3.7 ± 0.43 mL/min/kg
MRT ([3]; iv, 1 mg/kg, read-out: MRT): 5.6 ± 6.3 h
half-life ([3]; iv, 1 mg/kg): 19 ± 20 h
Vd ([3]; iv, 1 mg/kg, read-out: Vdss): 1.2 ± 1.4 L/kg
concentration at 24 h ([3]; oral, 5 mg/kg, read-out: C-24 hr): 240 nM
AUC ([3]; po, 5 mg/kg): 24 µM·h
Cmax ([3]; po, 5 mg/kg, read-out: Cmax): 4200 nM
half-life ([3]; po, 5 mg/kg): 11 h
bioavailability ([3]; monkey, historical parent, PO 5 mg/kg, read-out: Bioavailability (%)): 49%
Tmax ([3]; monkey, historical parent, PO 5 mg/kg, read-out: Tmax (hr), PO): 2.5 h
half-life ([3]; male, iv, […]): 6.5 ± 2.4 h
bioavailability ([3]; male, oral, […], read-out: Bioavailability): 187%
half-life ([3]; male, po, […]): 4.1 ± 1.1 h
Tmax ([3]; male, po, […], read-out: Tmax): 1.5 ± 0.87 h
bioavailability ([3]; male, monkey, oral prodrug, read-out: Bioavailability (%) of parent from prodrug): 187%
Tmax ([3]; male, monkey, parent after oral prodrug (~4-6 mg/kg parent equivalent), read-out: Tmax (hr), PO): 1.5 h
